Measured values taken from patent US20250326744A1, “PIPERAZINE DERIVATIVE OR SALT THEREOF, AND PHARMACEUTICAL COMPOSITION” (priority 2022, published 2025).
Where a name gives a salt, the structure may show the parent alone.

What was measured:
mexB (PA) strain = experiment: Combinational effect with antibacterial agent against Pseudomonas aeruginosa (Test Examples 2 and 4): mexB (PA) strain with LVFX, TC or AZT at 1/4 MIC, EC99; format: cell-based; conditions: Table 52, Test Example 2, 16 to 20 hours culture, OD595; for EC99, mexB (PA), AZT: combined with AZT at 1/4 MIC; for EC99, mexB (PA), LVFX: combined with LVFX at 1/4 MIC; for EC99, mexB (PA), TC: combined with TC at 1/4 MIC
Outline: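 P. aeruginosa mexB (PA) strain, lacking MexCD-OprJ, MexEF-OprN and MexXY and overexpressing MexAB-OprM, grown 16–20 h in CAMHB (10^4–5 CFU/well) with LVFX, TC or AZT at ¼ MIC plus test compound at 0–800 μM. Growth read as OD595; EC99 is the lowest compound concentration giving ≥99% growth inhibition.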

S-3769 strain = experiment: Combinational effect with antibacterial agent against Pseudomonas aeruginosa (Test Examples 2 and 4): S-3769 strain with AMK or GM at 1/4 MIC, EC99; format: cell-based; conditions: Table 52, Test Example 2, 16 to 20 hours culture, OD595; for EC99, S-3769 strain, AMK: combined with AMK at 1/4 MIC; for EC99, S-3769 strain, GM: combined with GM at 1/4 MIC
Outline: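 P. aeruginosa S-3769 (clinical isolate, MexY overexpressed) grown 16–20 h in CAMHB, 10^4 to 5 CFU/well, with AMK or GM at ¼ MIC plus test compound 0–800 μM. Growth read as OD595; EC99 is the lowest compound concentration giving ≥99% growth inhibition.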

| SMILES | EC99, mexB (PA), AZT (mexB (PA) strain) | EC99, mexB (PA), LVFX (mexB (PA) strain) | EC99, mexB (PA), TC (mexB (PA) strain) | EC99, S-3769 strain, AMK (S-3769 strain) | EC99, S-3769 strain, GM (S-3769 strain) |
| --- | --- | --- | --- | --- | --- |
| CCOc1cccc(F)c1CN1CCN(C(=O)[C@H](N)C2CCN(CCc3cc(Cl)ccc3-c3ccccc3O)CC2)CC1 [Example 107, (R)-2-amino-2-(1-(2-(4-chloro-2′-hydroxy-[1,1′-biphenyl]-2-yl)ethyl)piperidin-4-yl)-1-(4-(2-ethoxy-6-fluorobenzyl)piperazin-1-yl)ethan-1-one] | A (12.5 μM<EC99≤25 μM) | A (12.5 μM<EC99≤25 μM) | A (12.5 μM<EC99≤25 μM) | A (12.5 μM<EC99≤25 μM) | A (12.5 μM<EC99≤25 μM) |
| CCOc1cccc(F)c1CN1CCN(C(=O)[C@H](N)C2CCN(CCc3cc(Cl)ccc3-c3ccc(F)cc3O)CC2)CC1 [Example 108, Hydrochloride of (R)-2-amino-2-(1-(2-(4-chloro-4′-fluoro-2′-hydroxy-[1,1′-biphenyl]-2-yl)ethyl)piperidin-4-yl)-1-(4-(2-ethoxy-6-fluorobenzyl)piperazin-1-yl)ethan-1-one] | B (25 μM<EC99≤100 μM) | B (25 μM<EC99≤100 μM) | A (12.5 μM<EC99≤25 μM) | S (EC99≤12.5 μM) | A (12.5 μM<EC99≤25 μM) |
| CCOc1cccc(F)c1CN1CCN(C(=O)[C@H](N)C2CCN(CCc3ccccc3-c3ccccc3)CC2)CC1 [Example 109, hydrochloride of (R)-2-(1-(2-([1,1′-biphenyl]-2-yl)ethyl)piperidin-4-yl)-2-amino-1-(4-(2-ethoxy-6-fluorobenzyl)piperazin-1-yl)ethan-1-one] | B (25 μM<EC99≤100 μM) | C (100 μM<EC99) | B (25 μM<EC99≤100 μM) | 4 µM | A (12.5 μM<EC99≤25 μM) |
| CCOc1cccc(F)c1CN1CCN(C(=O)[C@H](N)C2CCN(CCc3ccccc3F)CC2)CC1 [Example 121, Hydrochloride of (R)-2-amino-1-(4-(2-ethoxy-6-fluorobenzyl)piperazin-1-yl)-2-(1-(2-fluorophenethyl)piperidin-4-yl)ethan-1-one] | C (100 μM<EC99) | C (100 μM<EC99) | C (100 μM<EC99) | B (25 μM<EC99≤100 μM) | B (25 μM<EC99≤100 μM) |
| CCOc1cccc(F)c1CN1CCN(C(=O)[C@H](N)C2CCN(CCc3ccccc3OC)CC2)CC1 [Example 122, Hydrochloride of (R)-2-amino-1-(4-(2-ethoxy-6-fluorobenzyl)piperazin-1-yl)-2-(1-(2-methoxyphenethyl)piperidin-4-yl)ethan-1-one] | C (100 μM<EC99) | C (100 μM<EC99) | C (100 μM<EC99) | B (25 μM<EC99≤100 μM) | A (12.5 μM<EC99≤25 μM) |
| CCOc1cccc(F)c1CN1CCN(C(=O)[C@H](N)C2CCN(CCC3CCCCO3)CC2)CC1 (stereo partly shown) [Example 123] | C (100 μM<EC99) | C (100 μM<EC99) | C (100 μM<EC99) | C (100 μM<EC99) | C (100 μM<EC99) |
| CCOc1cccc(F)c1CN1CCN(C(=O)[C@H](N)C2CCN(CCc3cc(Cl)ccc3-c3ccccc3)CC2)CC1 [Example 137, (R)-2-amino-2-(1-(2-(4-chloro-[1,1′-biphenyl]-2-yl)ethyl)piperidin-4-yl)-1-(4-(2-ethoxy-6-fluorobenzyl)piperazin-1-yl)ethan-1-one] | S (EC99≤12.5 μM) | A (12.5 μM<EC99≤25 μM) | A (12.5 μM<EC99≤25 μM) | S (EC99≤12.5 μM) | S (EC99≤12.5 μM) |
| CCOc1cccc(F)c1CN1CCN(C(=O)[C@H](N)C2CCN(CCc3cc(Cl)ccc3-c3ccccc3F)CC2)CC1 [Example 139, hydrochloride of (R)-2-amino-2-(1-(2-(4-chloro-2′-fluoro-[1,1′-biphenyl]-2-yl)ethyl)piperidin-4-yl)-1-(4-(2-ethoxy-6-fluorobenzyl)piperazin-1-yl)ethan-1-one] | A (12.5 μM<EC99≤25 μM) | A (12.5 μM<EC99≤25 μM) | A (12.5 μM<EC99≤25 μM) | S (EC99≤12.5 μM) | S (EC99≤12.5 μM) |
| CCOc1cccc(F)c1CN1CCN(C(=O)[C@H](N)C2CCN(CCc3c[nH]c4ccccc34)CC2)CC1 [Example 148, hydrobromide of (R)-2-(1-(2-(1H-indol-3-yl)ethyl)piperidin-4-yl)-2-amino-1-(4-(2-ethoxy-6-fluorobenzyl)piperazin-1-yl)ethan-1-one] | C (100 μM<EC99) | C (100 μM<EC99) | B (25 μM<EC99≤100 μM) | S (EC99≤12.5 μM) | S (EC99≤12.5 μM) |
| CCOc1cccc(F)c1CN1CCN(C(=O)[C@H](N)C2CCN(CCc3cccc4ccc(OC)cc34)CC2)CC1 [Example 149, Hydrobromide of (R)-2-amino-1-(4-(2-ethoxy-6-fluorobenzyl)piperazin-1-yl)-2-(1-(2-(7-methoxynaphthalen-1-yl)ethyl)piperidin-4-yl)ethan-1-one] | C (100 μM<EC99) | C (100 μM<EC99) | B (25 μM<EC99≤100 μM) | S (EC99≤12.5 μM) | S (EC99≤12.5 μM) |
| CCOc1cccc(F)c1CN1CCN(C(=O)[C@H](N)C2CCN(CCc3csc4ccccc34)CC2)CC1 [Example 150, Hydrobromide of (R)-2-amino-2-(1-(2-(benzo[b]thiophen-3-yl)ethyl)piperidin-4-yl)-1-(4-(2-ethoxy-6-fluorobenzyl)piperazin-1-yl)ethan-1-one] | B (25 μM<EC99≤100 μM) | C (100 μM<EC99) | B (25 μM<EC99≤100 μM) | S (EC99≤12.5 μM) | S (EC99≤12.5 μM) |
| CCOc1cccc(F)c1CN1CCN(C(=O)[C@H](N)C2CCN(CCC3CCCc4ccccc43)CC2)CC1 (stereo partly drawn) [Example 151, Hydrobromide of (2R)-2-amino-1-(4-(2-ethoxy-6-fluorobenzyl)piperazin-1-yl)-2-(1-(2-(1,2,3,4-tetrahydronaphthalen-1-yl)ethyl)piperidin-4-yl)ethan-1-one] | C (100 μM<EC99) | C (100 μM<EC99) | C (100 μM<EC99) | B (25 μM<EC99≤100 μM) | B (25 μM<EC99≤100 μM) |
| CCOc1cccc(F)c1CN1CCN(C(=O)[C@H](N)C2CCN(CCc3coc4ccccc34)CC2)CC1 [Example 152, Hydrobromide of (R)-2-amino-2-(1-(2-(benzofuran-3-yl)ethyl)piperidin-4-yl)-1-(4-(2-ethoxy-6-fluorobenzyl)piperazin-1-yl) ethan-1-one] | C (100 μM<EC99) | C (100 μM<EC99) | C (100 μM<EC99) | S (EC99≤12.5 μM) | S (EC99≤12.5 μM) |
| CCOc1cccc(F)c1CN1CCN(C(=O)[C@H](N)C2CCN(CCC3COc4ccccc4C3)CC2)CC1 (stereo partly drawn) [Example 153, Hydrobromide of (2R)-2-amino-2-(1-(2-(chroman-3-yl)ethyl)piperidin-4-yl)-1-(4-(2-ethoxy-6-fluorobenzyl)piperazin-1-yl)ethan-1-one] | C (100 μM<EC99) | C (100 μM<EC99) | C (100 μM<EC99) | S (EC99≤12.5 μM) | S (EC99≤12.5 μM) |
| CCOc1cccc(F)c1CN1CCN(C(=O)[C@H](N)C2CCN(CCn3ccc4ccccc43)CC2)CC1 [Example 159, Hydrobromide of (R)-2-(1-(2-(1H-indol-1-yl)ethyl)piperidin-4-yl)-2-amino-1-(4-(2-ethoxy-6-fluorobenzyl)piperazin-1-yl)ethan-1-one] | C (100 μM<EC99) | C (100 μM<EC99) | C (100 μM<EC99) | B (25 μM<EC99≤100 μM) | C (100 μM<EC99) |
| CCOc1cccc(F)c1CN1CCN(C(=O)CN2CCC(O)(CCc3ccccc3)CC2)CC1 [Example 422, hydrochloride of 1-(4-(2-ethoxy-6-fluorobenzyl)piperazin-1-yl)-2-(4-hydroxy-4-phenethylpiperidin-1-yl)ethan-1-one] | A (12.5 μM<EC99≤25 μM) | B (25 μM<EC99≤100 μM) | A (12.5 μM<EC99≤25 μM) | C (100 μM<EC99) | C (100 μM<EC99) |
| CCOc1cccc(F)c1CN1CCN(C(=O)CN2CCC(CN)(CCc3ccccc3)CC2)CC1 [Example 425, hydrobromide of 2-(4-(aminomethyl)-4-phenethylpiperidin-1-yl)-1-(4-(2-ethoxy-6-fluorobenzyl)piperazin-1-yl)ethan-1-one] | C (100 μM<EC99) | C (100 μM<EC99) | C (100 μM<EC99) | B (25 μM<EC99≤100 μM) | B (25 μM<EC99≤100 μM) |
